# Assay results as given in patent US20230416196A1, “DIMER OF BIGUANIDINES AND THEIR THERAPEUTIC USES” (INSTITUT CURIE, priority 2020, published 2023).
# Legend:
# [1] = system: U937 cells; assay: Cell viability assay (CellTiter-Blue) on lymphoma cell line U937; format: cell-based; conditions: Homo sapiens, U-937, 72 h treatment
# Method: Cell culture. U-937 cells were grown in an incubator equilibrated at 37° C. with 5% CO2, grown to confluence and split with Trypsin/EDTA (Gibco, […]01) once or twice a week according to confluence. U-937 (ATCC, HTB-132) were cultured in RPMI 1640 GLUTAMAX (ThermoFisher Scientific, 61870044) supplemented with 10% Fetal Bovine Serum (FBS, Gibco, 10270-106) and Penicillin-Streptomycin mixture (BioWhittaker/Lonza, DE17-602E). […] Peripheral blood samples were collected from distinct healthy donors (Etablissement Français du Sang). Pan monocytes were isolated by negative magnetic sorting using microbeads according to the manufacturer's instructions (Miltenyi Biotec, 130-096-537), and cultured in RPMI 1640 supplemented with glutamine (Thermo Fisher Scientific, 61870010), 10% fetal bovine serum and exposed to granulocyte-macrophage colony-stimulating factor (GM-CSF, Miltenyi Biotec, 130-093-866, 100 ng/mL) to induce differentiation into macrophages (MDM). […] Cell viability assay (IC50). Cell viability assay was carried out by plating 1000 cells/well in 96-well plates. Cells were treated for 72 h in a range between to 25 nM and […] using serial dilutions. The inventors followed the manufacturer's protocol. In brief, CellTiter-Blue® reagent (G8081, Promega) was added after 72 h treatment and cells were incubated for 3 h before recording fluorescence intensities (λex. 560/20 nm; λem. 590/10 nm) using a Perkin Elmer Wallac 1420 Victor2 Microplate Reader.
# [2] = system: neutrophils; assay: Activation of neutrophils (CD64, CD66b flow cytometry); format: cell-based, human; conditions: LCC-12 10 μM, 1 h, LPS; FIG. 6C
# Method: Neutrophils. Peripheral blood samples were collected from healthy donors (Etablissement Français du Sang). Then, red cells in whole blood samples were lysed (ebioscience 10×RBC lysis buffer, 00-4300-54). The remaining cells were cultured in RPMI 1640 supplemented with glutamine, and 2% human serum, and activated 1 h with LPS (2 μg/mL) in presence of LCC-12 (10 μM). The granulocytes/neutrophils population was determined by flow cytometry using FSC, SSC and CD15 surface marker. The activation status of the granulocytes was assessed by measuring CD64 and CD66b surface markers by flow cytometry.
# [3] = system: lymphocytes (CD4, CD8); assay: Activation of CD4 and CD8 lymphocytes (CD25, CD69 flow cytometry); format: cell-based, human; conditions: LCC-12 10 μM, 48 h, CD3/CD28 activation; FIG. 6A-B
# Method: (§1) CD4 Lymphocytes. Peripheral blood samples were collected from healthy donors (Etablissement Français du Sang). CD4 lymphocytes were isolated by negative magnetic sorting using microbeads according to the manufacturer's instructions (Miltenyi Biotec, 130-096-533) and cultured in RPM11640 supplemented with glutamine and 10% fetal bovine serum. CD4 lymphocytes were activated for 48 h using CD3/CD28 antibodies (2.5 μg/mL), in presence of LCC-12 (10 μM). The activation status of the lymphocytes was assessed by measuring CD25 and CD69 surface markers by flow cytometry.
# as §1, with “CD8” for “CD4”, “130-096-495)” for “130-096-533)”, “activated” for “activated for”
# [4] = Copper-catalyzed oxidation of NADH by H2O2 (cell-free); format: biochemical; conditions: H2O2 present; FIG. 3C
# Method: Copper-catalyzed oxidation of NADH. The oxidation kinetics of NADH (N4505, Sigma-Aldrich) was followed by measurement of absorbance at 340 nm using a NanoDrop 2000. Measurements were performed at 26° C. A 10 mM sodium phosphate buffer adjusted to pH=7.2 was used as solvent. Each 500 μL mixture were prepared with NADH (400 μM), imidazole (56750, Sigma-Aldrich, 10 mM), CuSO4 (451657, Sigma-Aldrich, 4 μM), LCC/K2CO3 solution (1:1) (4 μM or 400 μM), metformin/K2CO3 solution (2:1) (J63361, Alfa Aesar, 800 μM), as indicated, and a H2O2 solution (16911, Sigma-Aldrich, 2 mM from an aq. solution 25-35% in H2O2) added at the reaction start time. The concentration of NADH was calculated from the measured absorbance at 340 nm and a molar extinction coefficient of […] L mol^−1 cm^−1.
# [5] = system: inflammatory macrophages (act. MDM); assay: Flow cytometry of CD80 and CD86 cell surface markers in activated MDM (Example 2); format: cell-based, human; conditions: LCC-12 10 μM; FIG. 4F
# Method: Cell culture. Peripheral blood samples were collected from distinct healthy donors (Etablissement Français du Sang). Pan monocytes were isolated by negative magnetic sorting using microbeads according to the manufacturer's instructions (Miltenyi Biotec, 130-096-537), and cultured in RPMI 1640 supplemented with glutamine (Thermo Fisher Scientific, 61870010), 10% fetal bovine serum and exposed to granulocyte-macrophage colony-stimulating factor (GM-CSF, Miltenyi Biotec, 130-093-866, 100 ng/mL) to induce differentiation into macrophages (MDM). At day 5 of differentiation, MDM were treated with lipopolysaccharides (LPS, InvivoGen, tlrl-3pelps, 100 ng/mL, 24 h) and interferon-γ (IFNγ, Miltenyi Biotec, 130-096-484, 20 ng/mL, 24 h) to generate activated MDM (act. MDM) and were co-treated with metformin (Met, 1,1-dimethylbiguanid hydrochloride, Alfa Aesar, J63361, 10 mM, 24 h) or LCC-12 (in-house, 10 μM, 24 h) as indicated.
# Flow cytometry. […] Macrophages were analyzed with an antibody panel consisting of antibodies against the following cell surface proteins: CD44, CD80, CD86 and TfR1. The data were analyzed with FlowJo software v. […] Flow cytometry analysis of lysosomal iron content: Lysosomal iron was monitored by incubating cells at 37° C. with 5% CO2 in medium containing RhoNox-M (in-house, 1 μM, 1 h), before flow analysis of fluorescence intensity.
structure (smiles),measurement,setting,value
"N=C(N)NC(=N)NCCCCCCCCCCCCNC(=N)NC(=N)N [LCC-12, lipophilic copper clamp C12]",IC50,[1],2 µM
same,activation of neutrophils in vitro,[2],does not impact the activation
same,activation of lymphocytes,[3],decreases the activation
same,rate of NADH oxidation catalyzed by copper(II),[4],more pronounced effect
same,production of inflammatory macrophages according to CD80 and CD86 cell surface markers,[5],interfered with the production of inflammatory macrophages
